# Data: patent US20150181873A1, “HERBICIDE-RESISTANT SUNFLOWER PLANTS, POLYNUCLEOTIDES ENCODING HERBICIDE=RESISTANT ACETO HYDROXY ACID SYNTHASE LARGE SUBUNIT PROTEINS, AND METHODS OF USE” (NIDERA S.A., priority 2013, published 2015)
# “And” between values parts separate entries of the source, which are not always exact repeats. Equal values may be shown once.
# Key:
# Assay type in all cases: in vivo, Helianthus annuus
# [1] = tested on: sunflower line IB920 (A205V); assay: Greenhouse imazapir dose response, IB920; conditions: 14 DAT
# Procedure: (§1) A greenhouse study was conducted to quantify and contrast the imazapir sensivity of the mutants A122T and A205V in different genetic backgrounds at the whole plant level in sunflower. Seeds of the different sunflower lines that were used in this study were obtained under field conditions.
# (§2) Seeds were sown in Petri dishes and, after germination, plantlets were transplanted to pots of 10 cm of diameter in a potting media consisting of equal parts of vermiculite, soil and sand. Plants were grown in a greenhouse under natural light conditions supplemented with 400 W sodium halide lamps to provide a 16 hrs daylength. Day/night temperatures were 25 and 20° C., respectively. At the V2 stage 10 plants of each genotype were randomly assigned to each treatment consisting of […] imazapir doses (0, 40, 80, 160, 240, 320, 400 and 480 g ai/ha), and a zero-time biomass determination. Experiment was arranged as a randomized block design with a full factorial (sunflower line×treatment) arrangement of treatments and 10 replications.
# (§3) On the day of herbicide application ten plants of each genotype were cut at the cotyledonal node and dried at 60° C. for 48 hrs zero-time for dried weight determination. […] Height was determined as the distance between the cotyledonal node and the apex of each plant. For root biomass determination, each plant was taken from the pot and the potting media was washed out from the roots. Above ground biomass data from each line were converted to biomass accumulation after application by subtracting the appropriate average zero-time biomass from each sample. Dry biomass data were converted to percentages of the untreated control plants within each line to allow direct comparisons between groups.
# [2] = tested on: sunflower restorer line IR79 (A205V); assay: Greenhouse imazapir dose response, IR79; conditions: 14 DAT
# Procedure: as §1, §2, §3
# [3] = tested on: sunflower genotypes carrying the A122T mutation event; assay: Greenhouse imazapir dose response, A122T genotypes together; conditions: 14 DAT; for biomass accumulation, Dif with control / plant height, Dif with Control / root dry weight, Dif with control: A122T mean; for Phytotoxicity Index, Dif A205V − A122T / biomass accumulation, Dif A122T − A205V / plant height, Dif A122T − A205V / root dry weight, Dif A122T − A205V: difference of group means; for biomass accumulation, % of untreated, Mean / plant height, % of untreated, Mean / root dry weight, % of untreated, Mean: six A122T genotypes; for Phytotoxicity Index, Mean: three A122T genotypes
# Procedure: as §1, §2, §3
smiles,measurement,setting,value
"CC(C)C1(C)N=C(c2ncccc2C(=O)O)NC1=O (centres unmarked) [Imazapyr, imazapyr]","biomass accumulation, % of untreated",[1]; 0.5x (40 g ai/ha),93.9%
same,"plant height, % of untreated",[1]; 0.5x (40 g ai/ha),96.2%
same,"root dry weight, % of untreated",[1]; 0.5x (40 g ai/ha),94.0%
same,"biomass accumulation, % of untreated",[1]; 1x (80 g ai/ha),87.9%
same,"plant height, % of untreated",[1]; 1x (80 g ai/ha),80.0%
same,"root dry weight, % of untreated",[1]; 1x (80 g ai/ha),89.6%
same,"biomass accumulation, % of untreated",[1]; 2x (160 g ai/ha),58.8%
same,"plant height, % of untreated",[1]; 2x (160 g ai/ha),61.5%
same,"root dry weight, % of untreated",[1]; 2x (160 g ai/ha),50.7%
same,"biomass accumulation, % of untreated",[1]; 3x (240 g ai/ha),46.4%
same,"plant height, % of untreated",[1]; 3x (240 g ai/ha),40.9%
same,"root dry weight, % of untreated",[1]; 3x (240 g ai/ha),37.3%
same,"biomass accumulation, % of untreated",[1]; 4x (320 g ai/ha),35.5%
same,"plant height, % of untreated",[1]; 4x (320 g ai/ha),27.9%
same,"root dry weight, % of untreated",[1]; 4x (320 g ai/ha),32.8%
same,"biomass accumulation, % of untreated",[1]; 5x (400 g ai/ha),33.9%
same,"plant height, % of untreated",[1]; 5x (400 g ai/ha),30.0%
same,"root dry weight, % of untreated",[1]; 5x (400 g ai/ha),25.4%
same,"biomass accumulation, % of untreated",[1]; 6x (480 g ai/ha),29.4%
same,"plant height, % of untreated",[1]; 6x (480 g ai/ha),27.1%
same,"root dry weight, % of untreated",[1]; 6x (480 g ai/ha),19.4%
same,"biomass accumulation, % of untreated",[2]; 0.5x (40 g ai/ha),94.4%
same,"plant height, % of untreated",[2]; 0.5x (40 g ai/ha),92.8%
same,"root dry weight, % of untreated",[2]; 0.5x (40 g ai/ha),98.6%
same,"biomass accumulation, % of untreated",[2]; 1x (80 g ai/ha),74.0%
same,"plant height, % of untreated",[2]; 1x (80 g ai/ha),80.9%
same,"root dry weight, % of untreated",[2]; 1x (80 g ai/ha),53.4%
same,"biomass accumulation, % of untreated",[2]; 2x (160 g ai/ha),67.7%
same,"plant height, % of untreated",[2]; 2x (160 g ai/ha),74.9%
same,"root dry weight, % of untreated",[2]; 2x (160 g ai/ha),42.5%
same,"biomass accumulation, % of untreated",[2]; 3x (240 g ai/ha),49.1%
same,"plant height, % of untreated",[2]; 3x (240 g ai/ha),55.7%
same,"root dry weight, % of untreated",[2]; 3x (240 g ai/ha),38.4%
same,"biomass accumulation, % of untreated",[2]; 4x (320 g ai/ha),44.5%
same,"plant height, % of untreated",[2]; 4x (320 g ai/ha),52.8%
same,"root dry weight, % of untreated",[2]; 4x (320 g ai/ha),31.5%
same,"biomass accumulation, % of untreated",[2]; 5x (400 g ai/ha),40.1%
same,"plant height, % of untreated",[2]; 5x (400 g ai/ha),41.7%
same,"root dry weight, % of untreated",[2]; 5x (400 g ai/ha),23.3%
same,"biomass accumulation, % of untreated",[2]; 6x (480 g ai/ha),35.3%
same,"plant height, % of untreated",[2]; 6x (480 g ai/ha),33.2%
same,"root dry weight, % of untreated",[2]; 6x (480 g ai/ha),21.9%
same,"biomass accumulation, Dif with control",[3]; 0.5x (40 g ai/ha),1.1%
same,"plant height, Dif with Control",[3]; 0.5x (40 g ai/ha),0.6%
same,"root dry weight, Dif with control",[3]; 0.5x (40 g ai/ha),0.1%
same,"biomass accumulation, Dif with control",[3]; 1x (80 g ai/ha),3.2%
same,"plant height, Dif with Control",[3]; 1x (80 g ai/ha),1.4%
same,"root dry weight, Dif with control",[3]; 1x (80 g ai/ha),2.5%
same,"biomass accumulation, Dif with control",[3]; 2x (160 g ai/ha),5.1%
same,"plant height, Dif with Control",[3]; 2x (160 g ai/ha),2.7%
same,"root dry weight, Dif with control",[3]; 2x (160 g ai/ha),5.9%
same,"biomass accumulation, Dif with control",[3]; 3x (240 g ai/ha),7.2%
same,"plant height, Dif with Control",[3]; 3x (240 g ai/ha),4.4%
same,"root dry weight, Dif with control",[3]; 3x (240 g ai/ha),10.6%
same,"biomass accumulation, Dif with control",[3]; 4x (320 g ai/ha),12.2%
same,"plant height, Dif with Control",[3]; 4x (320 g ai/ha),6.3%
same,"root dry weight, Dif with control",[3]; 4x (320 g ai/ha),18.6%
same,"biomass accumulation, Dif with control",[3]; 5x (400 g ai/ha),20.7%
same,"plant height, Dif with Control",[3]; 5x (400 g ai/ha),10.2%
same,"root dry weight, Dif with control",[3]; 5x (400 g ai/ha),21.3%
same,"plant height, Dif with Control",[3]; 6x (480 g ai/ha),15.8%
same,"root dry weight, Dif with control",[3]; 6x (480 g ai/ha),38.3%
same,"biomass accumulation, Dif with control","[3]; 6x (480 g ai/ha), listed as imazapir",25% and 25.4%
same,"Phytotoxicity Index, Dif A205V − A122T",[3]; 0.5x (40 g ai/ha),−0.29
same,"biomass accumulation, Dif A122T − A205V",[3]; 0.5x (40 g ai/ha),4.3%
same,"plant height, Dif A122T − A205V",[3]; 0.5x (40 g ai/ha),4.9%
same,"root dry weight, Dif A122T − A205V",[3]; 0.5x (40 g ai/ha),12.7%
same,"Phytotoxicity Index, Dif A205V − A122T",[3]; 1x (80 g ai/ha),−0.29
same,"biomass accumulation, Dif A122T − A205V",[3]; 1x (80 g ai/ha),14.5%
same,"plant height, Dif A122T − A205V",[3]; 1x (80 g ai/ha),9.4%
same,"root dry weight, Dif A122T − A205V",[3]; 1x (80 g ai/ha),26.7%
same,"Phytotoxicity Index, Dif A205V − A122T",[3]; 2x (160 g ai/ha),1.87
same,"biomass accumulation, Dif A122T − A205V",[3]; 2x (160 g ai/ha),33.2%
same,"plant height, Dif A122T − A205V",[3]; 2x (160 g ai/ha),28.0%
same,"root dry weight, Dif A122T − A205V",[3]; 2x (160 g ai/ha),43.6%
same,"Phytotoxicity Index, Dif A205V − A122T",[3]; 3x (240 g ai/ha),4.81
same,"biomass accumulation, Dif A122T − A205V",[3]; 3x (240 g ai/ha),45.3%
same,"plant height, Dif A122T − A205V",[3]; 3x (240 g ai/ha),45.3%
same,"root dry weight, Dif A122T − A205V",[3]; 3x (240 g ai/ha),50.2%
same,"Phytotoxicity Index, Dif A205V − A122T",[3]; 4x (320 g ai/ha),6.92
same,"biomass accumulation, Dif A122T − A205V",[3]; 4x (320 g ai/ha),52.4%
same,"plant height, Dif A122T − A205V",[3]; 4x (320 g ai/ha),59.9%
same,"root dry weight, Dif A122T − A205V",[3]; 4x (320 g ai/ha),50.3%
same,"Phytotoxicity Index, Dif A205V − A122T",[3]; 5x (400 g ai/ha),7.38
same,"biomass accumulation, Dif A122T − A205V",[3]; 5x (400 g ai/ha),46.9%
same,"plant height, Dif A122T − A205V",[3]; 5x (400 g ai/ha),57.8%
same,"root dry weight, Dif A122T − A205V",[3]; 5x (400 g ai/ha),47.9%
same,"Phytotoxicity Index, Dif A205V − A122T",[3]; 6x (480 g ai/ha),7.03
same,"biomass accumulation, Dif A122T − A205V",[3]; 6x (480 g ai/ha),44.6%
same,"plant height, Dif A122T − A205V",[3]; 6x (480 g ai/ha),54.0%
same,"root dry weight, Dif A122T − A205V",[3]; 6x (480 g ai/ha),37.3%
same,"biomass accumulation, % of untreated, Mean",[3]; 0.5x (40 g ai/ha),98.9%
same,"plant height, % of untreated, Mean",[3]; 0.5x (40 g ai/ha),99.4%
same,"root dry weight, % of untreated, Mean",[3]; 0.5x (40 g ai/ha),99.9%
same,"biomass accumulation, % of untreated, Mean",[3]; 1x (80 g ai/ha),96.8%
same,"plant height, % of untreated, Mean",[3]; 1x (80 g ai/ha),98.6%
same,"root dry weight, % of untreated, Mean",[3]; 1x (80 g ai/ha),97.5%
same,"biomass accumulation, % of untreated, Mean",[3]; 2x (160 g ai/ha),94.9%
same,"plant height, % of untreated, Mean",[3]; 2x (160 g ai/ha),97.3%
same,"root dry weight, % of untreated, Mean",[3]; 2x (160 g ai/ha),94.1%
same,"biomass accumulation, % of untreated, Mean",[3]; 3x (240 g ai/ha),92.8%
same,"plant height, % of untreated, Mean",[3]; 3x (240 g ai/ha),95.6%
same,"root dry weight, % of untreated, Mean",[3]; 3x (240 g ai/ha),89.4%
same,"biomass accumulation, % of untreated, Mean",[3]; 4x (320 g ai/ha),87.8%
same,"plant height, % of untreated, Mean",[3]; 4x (320 g ai/ha),93.7%
same,"root dry weight, % of untreated, Mean",[3]; 4x (320 g ai/ha),81.4%
same,"biomass accumulation, % of untreated, Mean",[3]; 5x (400 g ai/ha),79.3%
same,"plant height, % of untreated, Mean",[3]; 5x (400 g ai/ha),89.8%
same,"root dry weight, % of untreated, Mean",[3]; 5x (400 g ai/ha),78.7%
same,"biomass accumulation, % of untreated, Mean",[3]; 6x (480 g ai/ha),74.6%
same,"plant height, % of untreated, Mean",[3]; 6x (480 g ai/ha),84.2%
same,"root dry weight, % of untreated, Mean",[3]; 6x (480 g ai/ha),61.7%
same,"Phytotoxicity Index, Mean",[3]; 0.5x (40 g ai/ha),0.3
same,"Phytotoxicity Index, Mean",[3]; 1x (80 g ai/ha),0.3
same,"Phytotoxicity Index, Mean",[3]; 2x (160 g ai/ha),0.3
same,"Phytotoxicity Index, Mean",[3]; 3x (240 g ai/ha),0.3
same,"Phytotoxicity Index, Mean",[3]; 4x (320 g ai/ha),0.5
same,"Phytotoxicity Index, Mean",[3]; 5x (400 g ai/ha),0.8
same,"Phytotoxicity Index, Mean",[3]; 6x (480 g ai/ha),1.2
